Results from PubChem BioAssay (NCI).
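All cell lines were grown in 96-well plates and treated with compound for 48 hours. The concentration for 50% growth inhibition is given as GI50. TGI is the concentration that stops growth completely.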

Key:
Experiment in all cases: NCI tumour cell line growth inhibition, 48 h; in the data active = GI50 below about 0.43 µM; inactive = the rest
[1] = tested on: SNB-75 CNS
[2] = tested on: HOP-92 NSCLC
[3] = tested on: NCI-H23 lung
[4] = tested on: HT29 colon
[5] = tested on: KM12 colon
[6] = tested on: LOX IMVI melanoma
[7] = tested on: SK-MEL-2 melanoma
[8] = tested on: IGROV1 ovarian
[9] = tested on: A549 NSCLC
[10] = tested on: OVCAR-8 ovarian
[11] = tested on: HS 578T breast
[12] = tested on: NCI/ADR-RES ovarian
[13] = tested on: K-562 leukemia
[14] = tested on: HCT-15 colon
[15] = tested on: SK-MEL-5 melanoma
[16] = tested on: SK-MEL-28 melanoma
[17] = tested on: MOLT-4 leukemia
[18] = tested on: RXF 393 renal
[19] = tested on: UO-31 renal
[20] = tested on: MALME-3M melanoma
[21] = tested on: SN12C renal
[22] = tested on: T-47D breast
[23] = tested on: U251 CNS
[24] = tested on: SF-295 CNS
[25] = tested on: NCI-H226 lung
[26] = tested on: PC-3 prostate
[27] = tested on: BT-549 breast
[28] = tested on: DU-145 prostate
[29] = tested on: SNB-19 CNS
[30] = tested on: NCI-H460 lung
[31] = tested on: TK-10 renal
[32] = tested on: SF-539 CNS
[33] = tested on: HL-60(TB) leukemia
[34] = tested on: COLO 205 colon
[35] = tested on: SF-268 CNS
[36] = tested on: ACHN renal
[37] = tested on: SK-OV-3 ovarian
[38] = tested on: CAKI-1 renal
[39] = tested on: CCRF-CEM leukemia
[40] = tested on: NCI-H522 lung
[41] = tested on: RPMI-8226 leukemia
[42] = tested on: UACC-257 melanoma
[43] = tested on: OVCAR-5 ovarian
[44] = tested on: HOP-62 NSCLC
[45] = tested on: OVCAR-3 ovarian
[46] = tested on: 786-0 renal
[47] = tested on: SW-620 colon
[48] = tested on: MDA-MB-435
[49] = tested on: OVCAR-4 ovarian
[50] = tested on: MCF7 breast
[51] = tested on: M14 melanoma
[52] = tested on: MDA-MB-231 breast
[53] = tested on: UACC-62 melanoma
[54] = tested on: EKVX NSCLC
[55] = tested on: SR leukemia
[56] = tested on: A498 renal
[57] = tested on: HCT-116 colon

COC(=O)C1=C(C(=O)OC)SC(=C(Cl)C(=S)Oc2ccccc2N)S1
26.1 µM: TGI [7]
22.3 µM: TGI [6]
37.1 µM: TGI [12]
14.5 µM: TGI [8]
35.5 µM: TGI [32]
42.1 µM: TGI [44]
41.1 µM: TGI [24]
17.3 µM: TGI [50]
40.7 µM: TGI [38]
35.6 µM: TGI [19]
21.6 µM: TGI [27]
34.2 µM: TGI [11]
> 50000 nM: TGI [4] | TGI [5] | TGI [18] | TGI [23] | TGI [30] | TGI [33]
17 µM: TGI [48]
29.4 µM: TGI [51]
inactive: GI50 [1] 35.1 µM | GI50 [2] 37.3 µM | GI50 [3] 10.6 µM | GI50 [4] 33.7 µM | GI50 [5] > 50000 nM | GI50 [6] 9.16 µM | GI50 [7] 10.2 µM | GI50 [8] 3790 nM | GI50 [9] 18.1 µM | GI50 [10] 18.7 µM | GI50 [11] 15.6 µM | GI50 [12] 13.9 µM | GI50 [13] 15.8 µM | GI50 [14] 16.4 µM | GI50 [15] 8.43 µM | GI50 [16] > 50000 nM | GI50 [17] 25 µM | GI50 [18] 8.38 µM | GI50 [19] 10.6 µM | GI50 [20] 18.6 µM | GI50 [21] 18.2 µM | GI50 [22] > 50000 nM | GI50 [23] 16.2 µM | GI50 [24] 13.7 µM | GI50 [25] 20.5 µM | GI50 [26] 17.9 µM | GI50 [27] 10.2 µM | GI50 [28] 19.8 µM | GI50 [29] 25.8 µM | GI50 [30] 13.4 µM | GI50 [31] 49.5 µM | GI50 [32] 13.4 µM | GI50 [33] 14.5 µM | GI50 [34] 26.7 µM | GI50 [35] 15.9 µM | GI50 [36] 15 µM | GI50 [37] 22.3 µM | GI50 [38] 13.5 µM | GI50 [39] > 50000 nM | GI50 [40] 10.4 µM | GI50 [41] 17.9 µM | GI50 [42] 9.44 µM | GI50 [43] 37 µM | GI50 [44] 20.1 µM | GI50 [45] 10.8 µM | GI50 [46] 12.3 µM | GI50 [47] 24.2 µM | GI50 [48] 8.94 µM | GI50 [49] > 50000 nM | GI50 [50] 5.95 µM | GI50 [51] 10.8 µM | GI50 [52] 28 µM | GI50 [53] 16.5 µM | GI50 [54] 46.5 µM | GI50 [55] 12.9 µM
36.1 µM: TGI [45]
17.7 µM: TGI [15]
31.3 µM: TGI [40]
> 50 µM: TGI [1] | TGI [2] | TGI [3] | TGI [9] | TGI [10] | TGI [13] | TGI [14] | TGI [16] | TGI [17] | TGI [20] | TGI [21] | TGI [22] | TGI [25] | TGI [26] | TGI [28] | TGI [29] | TGI [31] | TGI [34] | TGI [35] | TGI [36] | TGI [37] | TGI [39] | TGI [41] | TGI [43] | TGI [46] | TGI [47] | TGI [49] | TGI [52] | TGI [53] | TGI [54]
35 µM: TGI [55]
18.8 µM: TGI [42]

COc1cc(-c2nn(-c3ccc(NC(=O)NCCNS(=O)(=O)c4ccc(F)cc4)cc3)cc2-c2ccncc2)ccc1Cl
8.4 µM: TGI [8]
2.7 µM: TGI [40]
6.3 µM: TGI [46]
1510 nM: TGI [30]
8.44 µM: TGI [21]
active: GI50 [56] 389 nM | GI50 [4] 0.318 µM | GI50 [5] 390 nM | GI50 [18] 0.247 µM | GI50 [23] 0.409 µM | GI50 [57] 339 nM | GI50 [28] 0.387 µM | GI50 [30] 0.387 µM | GI50 [32] 0.281 µM | GI50 [33] 0.391 µM | GI50 [40] 0.295 µM | GI50 [45] 0.246 µM | GI50 [48] 0.17 µM | GI50 [50] 0.3 µM | GI50 [51] 0.324 µM
2030 nM: TGI [5]
12.7 µM: TGI [47]
> 100 µM: TGI [12] | TGI [19] | TGI [29] | TGI [39] | TGI [43] | TGI [49] | TGI [50] | TGI [54]
3.38 µM: TGI [52]
8.06 µM: TGI [36]
2.88 µM: TGI [6]
5 µM: TGI [35]
5.98 µM: TGI [11]
inactive: GI50 [2] 1.45 µM | GI50 [3] 0.632 µM | GI50 [6] 0.556 µM | GI50 [7] 0.553 µM | GI50 [8] 795 nM | GI50 [9] 1.92 µM | GI50 [10] 0.588 µM | GI50 [11] 0.453 µM | GI50 [12] > 100 µM | GI50 [15] 0.453 µM | GI50 [16] 1420 nM | GI50 [17] 0.583 µM | GI50 [19] 2.38 µM | GI50 [21] 0.733 µM | GI50 [22] 733 nM | GI50 [25] 1.38 µM | GI50 [26] 0.453 µM | GI50 [27] 0.782 µM | GI50 [29] 0.857 µM | GI50 [31] 1.89 µM | GI50 [35] 0.629 µM | GI50 [36] 2.21 µM | GI50 [37] 0.705 µM | GI50 [39] 459 nM | GI50 [42] 1.57 µM | GI50 [43] 1.21 µM | GI50 [44] 0.544 µM | GI50 [46] 0.901 µM | GI50 [47] 0.529 µM | GI50 [49] 1040 nM | GI50 [52] 0.65 µM | GI50 [54] 1.32 µM | GI50 [55] 0.427 µM
5.56 µM: TGI [22]
1770 nM: TGI [57]
1.68 µM: TGI [15]
888 nM: TGI [18]
7.3 µM: TGI [25]
3.01 µM: TGI [55]
9.29 µM: TGI [16]
2.62 µM: TGI [7]
51 µM: TGI [44]
4.73 µM: TGI [42]
4.95 µM: TGI [27]
1.53 µM: TGI [51]
2260 nM: TGI [33]
5.18 µM: TGI [3]
3.99 µM: TGI [17]
23.1 µM: TGI [9]
8.15 µM: TGI [37]
0.965 µM: TGI [32]
0.418 µM: TGI [48]
10.8 µM: TGI [28]
0.665 µM: TGI [45]
2180 nM: TGI [56]
5.38 µM: TGI [10]
2490 nM: TGI [23]
6.33 µM: TGI [31]
4.75 µM: TGI [26]
1230 nM: TGI [4]
5.91 µM: TGI [2]
